Several values for one entry are separate records, joined by “and”; a condition that tells them apart may be missing. Equal values may be shown once. Read-outs that look alike come from different tables or passages of the source.

Series [1] has as its target concanavalin A (ConA) lectin (Canavalia ensiformis, UniProt P02866). In kind it is binding. The method, then:
The affinity of the thioureidocysteaminyl-cyclodextrins of the invention for specific membrane lectins was evaluated in vitro following the ELLA (Enzyme-Linked Lectin Assay) protocol. […] 2002, 102, pp. 555-578. This technique measures the capacity of a soluble mono- or oligosaccharide ligand to inhibit the association between a complementary lectin and another reference ligand fixed to a plastic support microplate.
The IC50 values are inversely proportional to the respective affinities.
The cells of a microtitre plate (Nunc-Immuno™ plates, MaxiSorp™) are loaded with 100 μL of a stock solution of yeast mannan (Sigma, 10 μg·mL^−1) in a saline phosphate buffer solution (PBS; pH 7.3 containing Ca^2+ 0.1 mM and Mn^2+ 0.1 mM) for one night at ambient temperature. The cells are washed (3×300 μL) with a buffer solution containing 0.05% (v/v) of Tween 20 (PBST). This washing protocol is repeated after each incubation during the test. A bovine serum albumin solution (BSA, 1%) in PBS (150 μL/cell) is then added to the cells followed by incubation for 1 hour at 37° C., then washed.
In order to determine the optimal lectin concentration for inhibition studies, 100 μL of a series of concanavalin A solutions marked with radish peroxidase of 10^−1 to 10^−5 mg·mL^−1 in PBS is added to the cells loaded with mannan, and treated as indicated above. After incubation at 37° C. for 1 hour, the plates are washed (PBST) and a solution (50 μL) of the diammonium salt of 2,2′-azinobis(3-ethylbenzothiazoline-6-sulphonic) acid (ABTS, 1 mg in 4 mL) in citrate buffer (0.2 M, pH 4.0 with 0.015% hydrogen peroxide) is added. The reaction is stopped after 20 minutes by adding 50 μL/cell of sulphuric acid 1 M and the absorbances are measured at 415 nm using an ELISA reader. The control cells contained citrate-phosphate buffer.
In a series of experiments ConA marked with radish peroxidase in an appropriate concentration as indicated above (60 μL/cell) is added to the solutions of each compound (60 μL/cell) in PBS sequentially diluted twice, in a Nunclon™ (Delta) microtitre plate which is incubated at 37° C. for 1 hour. The solutions (100 μL/cell) are then transferred onto a microtitre plate loaded with mannan and treated as indicated above, which is then incubated at 37° C. for 1 hour. The cells are washed (PBST) and the ABTS solution (50 μL/cell) is added. After 20 minutes, the reaction is stopped (sulphuric acid) and the absorbances are measured. The percentage of inhibition is calculated with the formula: […]

The nature of series [2]: solubility in water. In kind it is physicochemical.
Series [3] can be described thus: solubilization of Taxotere in water by inclusion in the cyclodextrin derivative. The class given is physicochemical. As to conditions: 50 mmol·L^−1 of compound in sterile water; for solubility of the Taxotere in a solution of the compound: stirred at 70° C., stays in solution at ambient temperature. The source says:
These inclusion complexes can be prepared for example by adding to a solution or a suspension of the compound of the invention of formula (I) the pharmacologically active molecule in solution or in the pure state. The inclusion complex thus formed can be isolated by freeze-drying.
In the case of the compounds of the taxol family, such as Taxotere®, it is also possible to disperse this product in the pure state in a sterile solution of a compound according to the invention.
Starting with Taxotere in the pure state, 2.1 mg ([…]) of this product is dispersed in 1 mL of a solution containing 50 mmol·L^−1 of compound No. 1 in sterile water, then the suspension obtained is stirred at 70° C. until a clear solution is obtained which indicates the complexing of the Taxotere.

The conditions of series [4]: as described in WO 95/19994; cited from earlier work.

`OC[C@H]1O[C@H](OCC(CO[C@H]2O[C@H](CO)[C@@H](O)[C@H](O)[C@@H]2O)(CO[C@H]2O[C@H](CO)[C@@H](O)[C@H](O)[C@@H]2O)NC(=S)NCCSC[C@H]2O[C@@H]3O[C@H]4[C@H](O)[C@@H](O)[C@@H](O[C@H]5[C@H](O)[C@@H](O)[C@@H](O[C@H]6[C@H](O)[C@@H](O)[C@@H](O[C@H]7[C@H](O)[C@@H](O)[C@@H](O[C@H]8[C@H](O)[C@@H](O)[C@@H](O[C@H]9[C@H](O)[C@@H](O)[C@@H](O[C@H]2[C@H](O)[C@H]3O)O[C@@H]9CSCCNC(=S)NC(CO[C@H]2O[C@H](CO)[C@@H](O)[C@H](O)[C@@H]2O)(CO[C@H]2O[C@H](CO)[C@@H](O)[C@H](O)[C@@H]2O)CO[C@H]2O[C@H](CO)[C@@H](O)[C@H](O)[C@@H]2O)O[C@@H]8CSCCNC(=S)NC(CO[C@H]2O[C@H](CO)[C@@H](O)[C@H](O)[C@@H]2O)(CO[C@H]2O[C@H](CO)[C@@H](O)[C@H](O)[C@@H]2O)CO[C@H]2O[C@H](CO)[C@@H](O)[C@H](O)[C@@H]2O)O[C@@H]7CSCCNC(=S)NC(CO[C@H]2O[C@H](CO)[C@@H](O)[C@H](O)[C@@H]2O)(CO[C@H]2O[C@H](CO)[C@@H](O)[C@H](O)[C@@H]2O)CO[C@H]2O[C@H](CO)[C@@H](O)[C@H](O)[C@@H]2O)O[C@@H]6CSCCNC(=S)NC(CO[C@H]2O[C@H](CO)[C@@H](O)[C@H](O)[C@@H]2O)(CO[C@H]2O[C@H](CO)[C@@H](O)[C@H](O)[C@@H]2O)CO[C@H]2O[C@H](CO)[C@@H](O)[C@H](O)[C@@H]2O)O[C@@H]5CSCCNC(=S)NC(CO[C@H]2O[C@H](CO)[C@@H](O)[C@H](O)[C@@H]2O)(CO[C@H]2O[C@H](CO)[C@@H](O)[C@H](O)[C@@H]2O)CO[C@H]2O[C@H](CO)[C@@H](O)[C@H](O)[C@@H]2O)O[C@@H]4CSCCNC(=S)NC(CO[C@H]2O[C@H](CO)[C@@H](O)[C@H](O)[C@@H]2O)(CO[C@H]2O[C@H](CO)[C@@H](O)[C@H](O)[C@@H]2O)CO[C@H]2O[C@H](CO)[C@@H](O)[C@H](O)[C@@H]2O)[C@@H](O)[C@@H](O)[C@@H]1O` [Compound No. 3, heptakis[6-S-[2-N′-tris(α-D-mannopyranosyloxymethyl)methylthioureido]ethyl-6-thio]cyclomaltoheptaose]: in series [1], the Relative affinity came out at 41 and the Relative molar affinity is on record as 2.0.

In series [1] (relative to Me-α-D-Glcp = 1), `COC1OC(CO)C(O)C(O)C1O` [Me-α-D-Glcp, methyl-α-D-glucopyranoside, reference compound] had a Relative affinity of 1 and a Relative molar affinity of 1.

`Cl.Cl.Cl.Cl.Cl.Cl.Cl.NCCSC[C@H]1O[C@@H]2O[C@H]3[C@H](O)[C@@H](O)[C@@H](O[C@H]4[C@H](O)[C@@H](O)[C@@H](O[C@H]5[C@H](O)[C@@H](O)[C@@H](O[C@H]6[C@H](O)[C@@H](O)[C@@H](O[C@H]7[C@H](O)[C@@H](O)[C@@H](O[C@H]8[C@H](O)[C@@H](O)[C@@H](O[C@H]1[C@H](O)[C@H]2O)O[C@@H]8CSCCN)O[C@@H]7CSCCN)O[C@@H]6CSCCN)O[C@@H]5CSCCN)O[C@@H]4CSCCN)O[C@@H]3CSCCN` [Compound No. 1, heptakis[6-S-(2-aminoethyl-6-thio)]cyclomalto heptaose heptahydrochloride]: the solubility in water in series [2] was 500 g·L^−1 and 323 mmol·L^−1. For the same compound, in series [3], the “increase in the solubility of the Taxotere versus absence of cyclodextrin” value is on record as roughly 525 times and the “solubility of the Taxotere in a solution of the compound” value worked out at 2.1 g/L.

In series [1], `OC[C@H]1O[C@H](NC(=S)NCCSC[C@H]2O[C@@H]3O[C@H]4[C@H](O)[C@@H](O)[C@@H](O[C@H]5[C@H](O)[C@@H](O)[C@@H](O[C@H]6[C@H](O)[C@@H](O)[C@@H](O[C@H]7[C@H](O)[C@@H](O)[C@@H](O[C@H]8[C@H](O)[C@@H](O)[C@@H](O[C@H]9[C@H](O)[C@@H](O)[C@@H](O[C@H]2[C@H](O)[C@H]3O)O[C@@H]9CSCCNC(=S)N[C@H]2O[C@H](CO)[C@@H](O)[C@H](O)[C@@H]2O)O[C@@H]8CSCCNC(=S)N[C@H]2O[C@H](CO)[C@@H](O)[C@H](O)[C@@H]2O)O[C@@H]7CSCCNC(=S)N[C@H]2O[C@H](CO)[C@@H](O)[C@H](O)[C@@H]2O)O[C@@H]6CSCCNC(=S)N[C@H]2O[C@H](CO)[C@@H](O)[C@H](O)[C@@H]2O)O[C@@H]5CSCCNC(=S)N[C@H]2O[C@H](CO)[C@@H](O)[C@H](O)[C@@H]2O)O[C@@H]4CSCCNC(=S)N[C@H]2O[C@H](CO)[C@@H](O)[C@H](O)[C@@H]2O)[C@@H](O)[C@@H](O)[C@@H]1O` [Compound No. 2] yielded an IC50 of 175 µM, a Relative affinity of 4.9 and a Relative molar affinity of 0.7.

Regarding “heptakis[6-S-[2-N′-[2,2,2-tris[5-(1-thio-α-D-mannopyranosyl)-2-oxapentyl]ethyl]thioureido]ethyl-6-thio]cyclomaltoheptaose [Compound No. 4]”, in series [1], the Relative affinity was determined as 173 and the Relative molar affinity is 8.2. In series [3], the “increase in the solubility of the Taxotere versus absence of cyclodextrin” value was roughly 500 times and the “solubility of the Taxotere in a solution of the compound” value worked out at 2.0 g/L.

Regarding `OCC1OC(NC(=S)NCC2OC3OC4C(CNC(=S)NC5OC(CO)C(O)C(O)C5O)OC(OC5C(CNC(=S)NC6OC(CO)C(O)C(O)C6O)OC(OC6C(CNC(=S)NC7OC(CO)C(O)C(O)C7O)OC(OC7C(CNC(=S)NC8OC(CO)C(O)C(O)C8O)OC(OC8C(CNC(=S)NC9OC(CO)C(O)C(O)C9O)OC(OC9C(CNC(=S)NC%10OC(CO)C(O)C(O)C%10O)OC(OC2C(O)C3O)C(O)C9O)C(O)C8O)C(O)C7O)C(O)C6O)C(O)C5O)C(O)C4O)C(O)C(O)C1O` [heptakis(6-deoxy-6-α-D-mannopyranosylthioureido)cyclomaltoheptaose, reference compound], the “inhibition of the association between concanavalin A and yeast mannan” value in series [1] (175 µM) turned out to be 8%.

In series [1], “heptakis[6-S-[2-N′-[2,2-bis[5-(1-thio-α-D-mannopyranosyl)-2-oxapentyl]-2-[5-(1-thio-β-D-glucopyranosyl)-2-oxapentyl]ethyl]thioureido]ethylthio]cyclomaltoheptaose [Compound No. 7]” gave a Relative affinity of 67 and a Relative molar affinity of 4.8.

Regarding “6^I-S-α-maltosyl-6^I-thiocyclomaltoheptaose”, the “solubility in water of Taxotere on adding the cyclodextrin derivative to its aqueous suspension” value in series [4] is “up to 6.5 g/L”.

On to “heptakis[6-S-[2-N′-[2-[5-(1-thio-α-D-manno pyranosyl)-2-oxapentyl]-2,2-bis[5-(1-thio-β-D-glucopyranosyl)-2-oxapentyl]ethyl]thioureido]ethyl-6-thio]cyclomaltoheptaose [Compound No. 6]”, for which, in series [1], the Relative affinity worked out at 48, the Relative molar affinity is 6.9 and the “recognition by ConA (in words)” value was “not recognized by ConA”.

The term IC50 denotes the concentration needed to halve the response being measured. A lower IC50 goes with greater potency.

The record behind these values is US8440814B2, “Derivatives of cyclodextrins, process for their preparation and their use in particular for solubilizing pharmacologically active substances” (Centre National de la Recherche Scientifique, priority 2003, dated 2013).
